Results reported in the supplement of paper PMC13380429.

How the values were obtained:
Details in all cases: 72 h
[1] = test system: Calu-3; assay: cell viability relative to DMSO; higher = less toxic
[2] = test system: Caco-2; assay: as above
[3] = test system: HepG2; assay: as above
[4] = test system: Vero E6; assay: as above
[5] = test system: U2OS; assay: as above
[6] = test system: Calu-3; assay: relative viability EC50 (midpoint between 100% and the lowest measured viability); higher = less toxic
[7] = test system: Caco-2; assay: as above
[8] = test system: HepG2; assay: as above
[9] = test system: Vero E6; assay: as above
[10] = test system: U2OS; assay: as above
[11] = test system: Calu-3; assay: drug sensitivity score (DSS) for viability; higher = more toxic; extreme values may be limits of the assay
[12] = test system: Caco-2; assay: as above
[13] = test system: HepG2; assay: as above
[14] = test system: Vero E6; assay: as above
[15] = test system: U2OS; assay: as above

Structure (SMILES)	cell viability ([1]; 1 nM) [%]	cell viability ([1]; 10 nM) [%]	cell viability ([1]; 100 nM) [%]	cell viability ([1]; 1000 nM) [%]	cell viability ([1]; 10000 nM) [%]	cell viability ([2]; 1 nM) [%]	cell viability ([2]; 10 nM) [%]	cell viability ([2]; 100 nM) [%]	cell viability ([2]; 1000 nM) [%]	cell viability ([2]; 10000 nM) [%]	cell viability ([3]; 1 nM) [%]	cell viability ([3]; 10 nM) [%]	cell viability ([3]; 100 nM) [%]	cell viability ([3]; 1000 nM) [%]	cell viability ([3]; 10000 nM) [%]	cell viability ([4]; 1 nM) [%]	cell viability ([4]; 10 nM) [%]	cell viability ([4]; 100 nM) [%]	cell viability ([4]; 1000 nM) [%]	cell viability ([4]; 10000 nM) [%]	cell viability ([5]; 1 nM) [%]	cell viability ([5]; 10 nM) [%]	cell viability ([5]; 100 nM) [%]	cell viability ([5]; 1000 nM) [%]	cell viability ([5]; 10000 nM) [%]	relative viability EC50 [6] [µM]	relative viability EC50 [7] [µM]	relative viability EC50 [8] [µM]	relative viability EC50 [9] [µM]	relative viability EC50 [10] [µM]	drug sensitivity score [11]	drug sensitivity score [12]	drug sensitivity score [13]	drug sensitivity score [14]	drug sensitivity score [15]
C[C@H]1NCc2cc(-c3ccc4c(=O)c(C(=O)O)cn(C5CC5)c4c3OC(F)F)ccc21 [garenoxacin]	107	92.3	105	106	104	96.1	91.2	102	95.9	98.6	95.2	97.4	92.3	109	99	85.3	97	85.4	91.7	104	102	96.3	99.2	98	99.7	> 10	> 10	> 10	> 10	> 10	0	0	0	0	0
CCCN(CCC)C(=O)C(CCC(=O)OCCCN1CCN(CCOC(=O)Cc2c(C)n(C(=O)c3ccc(Cl)cc3)c3ccc(OC)cc23)CC1)NC(=O)c1ccccc1 (stereo not given) [proglumetacin]	95.5	96.2	99	110	96.6	104	96.5	99.1	112	108	91	114	112	85.3	93.9	115	97.2	98	91.5	102	95.9	106	101	104	94	> 10	> 10	> 10	> 10	> 10	0	0	1.1	0	0
CCCC[C@H](NC(C)=O)C(=O)N[C@H]1CC(=O)NCCCC[C@@H](C(=O)O)NC(=O)[C@H](Cc2c[nH]c3ccccc23)NC(=O)[C@H](CCCNC(=N)N)NC(=O)[C@@H](Cc2ccccc2)NC(=O)[C@H](Cc2c[nH]cn2)NC1=O [bremelanotide]	99.1	104	90.8	100	96.2	114	94.4	85.7	90.8	117	115	118	95.7	102	98.9	100	102	108	99.3	107	99.9	102	95	104	101	> 10	> 10	> 10	> 10	> 10	0	0	0	0	0
C=CCN1C[C@H](C)N([C@H](c2ccc(C(=O)N(CC)CC)cc2)c2cccc(OC)c2)C[C@H]1C [SNC-80]	93.4	98.8	101	91.2	104	92.1	99.2	101	95.5	93.7	99.9	84.6	100	106	97.4	106	97.7	105	102	101	98.4	103	93.4	99.4	94.7	> 10	> 10	> 10	> 10	> 10	0	0	0	0	0
